Experimental data reported in patent US12479827B2, “Heteroaromatic carboxamide derivatives as plasma kallikrein inhibitors” (Boehringer Ingelheim International GmbH, priority 2020, dated 2025).

What was measured:
Type in all cases: biochemical
Human PKK = biological target: T1, Human PKK (Homo sapiens, UniProt P03952); test: Inhibition of PKK using an endpoint assay (human PKK); details: fluorogenic substrate H-Pro-Phe-Arg-AMC, 1 h room temperature, method names human or rat PKK, table does not say which
T1 construct: purchased Enzyme Research Laboratories
T1 sequence (P03952 20-390 limits assumed): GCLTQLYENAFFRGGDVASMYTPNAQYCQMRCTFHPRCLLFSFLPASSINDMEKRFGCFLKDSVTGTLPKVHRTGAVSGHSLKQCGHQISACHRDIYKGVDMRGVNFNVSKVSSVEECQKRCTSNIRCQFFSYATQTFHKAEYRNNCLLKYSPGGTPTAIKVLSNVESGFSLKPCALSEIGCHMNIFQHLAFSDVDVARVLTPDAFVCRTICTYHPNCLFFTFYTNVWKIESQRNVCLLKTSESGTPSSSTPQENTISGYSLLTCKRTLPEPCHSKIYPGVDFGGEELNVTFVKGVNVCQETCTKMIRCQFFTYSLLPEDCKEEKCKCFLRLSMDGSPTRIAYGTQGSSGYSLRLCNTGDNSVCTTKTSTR
T1 sequence (P03952 391-638 limits assumed): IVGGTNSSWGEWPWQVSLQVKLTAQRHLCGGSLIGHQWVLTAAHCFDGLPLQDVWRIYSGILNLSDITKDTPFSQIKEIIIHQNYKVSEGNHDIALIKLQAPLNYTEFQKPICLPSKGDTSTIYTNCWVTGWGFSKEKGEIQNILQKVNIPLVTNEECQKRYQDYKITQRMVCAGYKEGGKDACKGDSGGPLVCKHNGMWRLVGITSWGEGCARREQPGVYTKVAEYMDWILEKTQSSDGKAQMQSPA
Procedure, shortened: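 Human PKK inhibition measured in 100 mM Tris, 150 mM NaCl, pH 7.8, 0.1% BSA, 0.05% Tween20, 1% DMSO. Endpoint format: reaction stopped with PPACK II at 1 μM final, fluorescence read at 355 nm excitation/460 nm emission.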

[1] = biological target: T2, PKK in kaolin activated human platelet poor plasma (Homo sapiens, UniProt P03952); test: Inhibition of PKK in kaolin activated human PPP; details: 25-750 μg/mL kaolin, global fit, text b200 calls the values IC90;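 also: readout is the rate of fluorogenic substrate cleavage in rfu per min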
T2 construct: Platelet poor plasma (PPP) obtained from human wholeblood; from tissue
T2 sequence (P03952 391-638 limits assumed): as above
T2 sequence (P03952 20-390 limits assumed): as the sequence (P03952 20-390 limits assumed) above
Method: Platelet poor plasma (PPP) obtained from human wholeblood, anticoagulated with Na-Citrate, is incubated with various concentrations of the test compound together with either 25, 75, 250, or 750 μg/mL kaolin in assay buffer for 20 min at 37° C. such that for each kaolin dose used a concentration response is obtained for the test compound.

human TK1 = biological target: T3, human TK1 (Homo sapiens, UniProt P06870); test: Inhibition of TK1 (Ki); details: activated human TK1, substrate H-Pro-Phe-Arg-AMC, 24° C.
T3 construct: purchased R&D Systems
T3 sequence (P06870 25-262): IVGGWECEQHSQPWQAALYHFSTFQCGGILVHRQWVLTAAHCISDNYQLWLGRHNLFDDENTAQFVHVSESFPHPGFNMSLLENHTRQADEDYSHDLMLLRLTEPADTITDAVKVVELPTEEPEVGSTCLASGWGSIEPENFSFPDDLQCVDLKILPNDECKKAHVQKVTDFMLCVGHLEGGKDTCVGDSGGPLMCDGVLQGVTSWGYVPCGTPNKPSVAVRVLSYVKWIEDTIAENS
Method: The ability of compounds of formula (I) to inhibit plasma kallikrein (PKK), Factor XIIa (FXIIa), Factor XIa (FXIa), Factor Xa (FXa), Factor IIa (alpha-thrombin; FIIa), plasmin, trypsin, tissue kallikrein 1 (TK1), Factor VIIa (FVIIa), or FVIIa complexed with Tissue Factor, phospholipids and CaCl2 (FVIIa/TF/PL/CaCl2) is determined using the following biochemical assays in assay buffer (100 mM Tris, 150 mM NaCL, adjusted to a pH of 7.8 with HCl, and containing 0.1% (w/v) BSA and 0.05% (v/v) Tween20) in the presence of 1% (v/v) DMSO:
Prior to the assay, human TK1 (R&D Systems) is activated by incubation with human trypsin (Calbiochem) in a 1:10,000 ratio for 15 min at 37° C. For assaying TK1 inhibitory activity, activated TK1 (31.25 nM or 1 U/mL) is incubated at 24° C. with 0.1 mM fluorogenic substrate H-Pro-Phe-Arg-AMC (11295 from Bachem) and various concentrations of the test compound in assay buffer. Measurements are performed in a kinetic interval every 2nd minute for 16 min using a Spectramax M5 (Molecular Devices) with the following settings of the wavelength excitation of 350 nm and wavelength emission of 450 nm.
The pIC50 values are then fitted using a four-parametric fitting procedure using GraphPad Prism (version 6; GraphPad Software, Inc.). Respective Ki values are obtained by correction of the IC50 values for the respective KM value of the used substrate (see Table A for the obtained KM values of the used substrates) using the following formula:
[formula] Where the IC50 is in molar and the KM value in mM.

| SMILES | IC50 (Human PKK) | IC50 [1] | Ki (human TK1) |
| --- | --- | --- | --- |
| Cc1nc(N2CC3CC3C2)ccc1Cn1cc(C(=O)N[C@@H]2CCc3c2ncn3C)c2cncnc21 (stereo partly drawn) [Example 173, 7-[(6-{3-Azabicyclo[3.1.0]hexan-3-yl]-2-methylpyridin-3-yl)methyl]-N-[(4R)-1-methyl-1H,4H,5H,6H-cyclopenta[d]imidazol-4-yl]-7H-pyrrolo[2,3-d]pyrimidine-5-carboxamide] | 0.6 nM | 729 nM | > 10000 nM |
| Cn1cnc2c1CC[C@H]2NC(=O)c1ccn(Cc2ccc(N3CC4C(C3)C4(F)F)nc2)c1 (stereo partly drawn) [Example 140, 1-[(6-{6,6-Difluoro-3-azabicyclo[3.1.0]hexan-3-yl}pyridin-3-yl)methyl]-N-[(4R)-1-methyl-1H,4H,5H,6H-cyclopenta[d]imidazol-4-yl]-1H-pyrrole-3-carboxamide] | 5.8 nM | 760 nM | – |
| CCn1nc(Cc2ccc(N3CC4C(C3)C4(F)F)nc2C)cc1C(=O)N[C@@H]1CCc2c1ncn2C (stereo partly drawn) [Example 163, 3-[(6-{6,6-Difluoro-3-azabicyclo[3.1.0]hexan-3-yl}-2-methylpyridin-3-yl)methyl]-1-ethyl-N-[(4R)-1-methyl-1H,4H,5H,6H-cyclopenta[d]imidazol-4-yl]-1H-pyrazole-5-carboxamide] | 2.2 nM | 470 nM | – |
| Cn1cnc2c1CC[C@H]2NC(=O)c1cnn(Cc2ccc(N3CC4C(C3)C4(F)F)nc2Br)c1 (stereo partly drawn) [Example 15, 1-[(2-Bromo-6-{6,6-difluoro-3-azabicyclo-[3.1.0]hexan-3-yl}pyridin-3-yl)methyl]-N-[(4R)-1-methyl-1H,4H,5H,6H-cyclopenta[d]imidazol-4-yl]-1H-pyrazole-4-carboxamide] | 1.1 nM | 414 nM | – |
| Cn1cnc2c1CC[C@H]2NC(=O)c1cnn(Cc2ccc(N3CC4C(C3)C4(F)F)nc2C2CCC2)c1 (stereo partly drawn) [Example 67, 1-[(2-Cydobutyl-6-{6,6-difluoro-3-azabicyclo[3.1.0]hexan-3-yl}pyridin-3-yl)methyl]-N-[(4R)-1-methyl-1H,4H,5H,6H-cyclopenta[d]imidazol-4-yl]-1H-pyrazole-4-carboxamide] | 3.1 nM | 635 nM | – |
| Cc1nc(N2CC3C(C2)C3(F)F)ccc1Cc1ncc(C(=O)N[C@@H]2CCc3c2ncn3C)s1 (stereo partly drawn) [Example 188, 2-[(6-{6,6-Difluoro-3-azabicyclo[3.1.0]hexan-3-yl}-2-methylpyridin-3-yl)methyl]-N-[(4R)-1-methyl-1H,4H,5H,6H-cyclopenta[d]imidazol-4-yl]-1,3-thiazole-5-carboxamide] | 19.8 nM | 1500 nM | – |
| Cn1cnc2c1CC[C@H]2NC(=O)c1c[nH]c(Cc2ccc(N3CC4C(C3)C4(F)F)nc2Cl)c1 (stereo partly drawn) [Example 159, 5-[(2-Chloro-6-{6,6-difluoro-3-azabicyclo-[3.1.0]hexan-3-yl}pyridin-3-yl)methyl]-N-[(4R)-1-methyl-1H,4H,5H,6H-cyclopenta[d]imidazol-4-yl]-1H-pyrrole-3-carboxamide] | 3.5 nM | 1140 nM | – |
| COCc1nc(N2CC3C(C2)C3(F)F)ccc1Cn1cnc(C(=O)N[C@@H]2CCc3c2ncn3C)c1 (stereo partly drawn) [Example 95, 1-[(6-{6,6-Difluoro-3-azabicyclo[3.1.0]hexan-3-yl}-2-(methoxymethyl)pyridin-3-yl)methyl]-N-[(4R)-1-methyl-1H,4H,5H,6H-cyclopenta-[d]imidazol-4-yl]-1H-imidazole-4-carboxamide] | 5.5 nM | 577 nM | – |
| CC(O)c1nc(N2CC3C(C2)C3(F)F)ccc1Cn1cc(C(=O)N[C@@H]2CCc3c2ncn3C)nn1 (stereo partly drawn) [Example 215, 1-[(6-{6,6-Difluoro-3-azabicyclo[3.1.0]hexan-3-yl}-2-(1-hydroxyethyl)pyridin-3-yl)methyl]-N-[(4R)-1-methyl-1H,4H,5H,6H-cyclopenta[d]imidazol-4-yl]-1H-1,2,3-triazole-4-carboxamide] | 0.7 nM | 194 nM | – |
| Cn1cnc2c1CC[C@H]2NC(=O)c1cnn(Cc2ccc(N3CC4C(C3)C4(F)F)nc2F)c1 (stereo partly drawn) [Example 18, 1-[(6-{6,6-Difluoro-3-azabicyclo[3.1.0]hexan-3-yl}-2-fluoropyridin-3-yl)methyl]-N-[(4R)-1-methyl-1H,4H,5H,6H-cyclopenta[d]imidazol-4-yl]-1H-pyrazole-4-carboxamide] | 2.1 nM | 460 nM | – |

More lines, now with the values ahead:

| IC50 (Human PKK) | IC50 [1] | Ki (human TK1) | SMILES |
| --- | --- | --- | --- |
| 5.5 nM | 1180 nM | > 10000 nM | Cc1nc(N2CC3CC3C2)ncc1Cn1cc(C(=O)N[C@@H]2CCc3c2ncn3C)cn1 (stereo partly drawn) [Example 177, 1-[(2-{3-Azabicyclo[3.1.0]hexan-3-yl}-4-methylpyrimidin-5-yl)methyl]-N-[(4R)-1-methyl-1H,4H,5H,6H-cyclopenta[d]imidazol-4-yl]-1H-pyrazole-4-carboxamide] |
| 4.3 nM | 962 nM | > 10000 nM | Cn1cnc2c1CC[C@H]2NC(=O)c1cnn(Cc2ccc(N3CC4CC4C3)nc2)c1 (stereo partly drawn) [Example 131, 1-[(6-{3-Azabicyclo[3.1.0]hexan-3-yl}pyridin-3-yl)methyl]-N-[(4R)-1-methyl-1H,4H,5H,6H-cyclopenta[d]imidazol-4-yl]-1H-pyrazole-4-carboxamide] |
| 9.9 nM | – | > 10000 nM | Cc1cc(N2CC3CC3C2)ncc1Cn1cc(C(=O)N[C@@H]2CCc3c2ncn3C)cn1 (stereo partly drawn) [Example 113, 1-[(6-{3-Azabicyclo[3.1.0]hexan-3-yl}-4-methylpyridin-3-yl)methyl]-N-[(4R)-1-methyl-1H,4H,5H,6H-cyclopenta[d]imidazol-4-yl]-1H-pyrazole-4-carboxamide] |
| 11.6 nM | – | 7280 nM | Cc1nc(N2CC3(CC3)C2)ncc1Cn1cc(C(=O)N[C@@H]2CCc3c2ncn3C)cn1 [Example 222, 1-[(2-{5-Azaspiro[2.3]hexan-5-yl}-4-methylpyrimidin-5-yl)methyl]-N-[(4R)-1-methyl-1H,4H,5H,6H-cyclopenta[d]imidazol-4-yl]-1H-pyrazole-4-carboxamide] |
| 1.7 nM | 594 nM | – | C[C@H](O)c1nc(N2CC3CC3C2)ccc1Cn1cc(C(=O)N[C@@H]2CCc3c2ncn3C)cn1 (stereo partly drawn) [Example 83, 1-[(6-{3-Azabicyclo[3.1.0]hexan-3-yl}-2-[(1S)-1-hydroxy-ethyl]pyridin-3-yl)methyl]-N-[(4R)-1-methyl-1H,4H,5H,6H-cyclopenta[d]imidazol-4-yl]-1H-pyrazole-4-carboxamide] |
| 14 nM | 769 nM | – | Cn1cnc2c1CC[C@H]2NC(=O)c1cnn(Cc2cnc(N3CC4CC4C3)nc2CO)c1 (stereo partly drawn) [Example 62, 1-[(2-{3-Azabicyclo[3.1.0]hexan-3-yl}-4-(hydroxymethyl)-pyrimidin-5-yl)methyl]-N-[(4R)-1-methyl-1H,4H,5H,6H-cyclopenta[d]imidazol-4-yl]-1H-pyrazole-4-carboxamide] |
| 7.1 nM | 6270 nM | – | Cc1nc(N2CC3CC3C2)ccc1Cc1cc(C(=O)N[C@@H]2CCc3c2ncn3C)co1 (stereo partly drawn) [Example 182, 5-[(6-{3-Azabicyclo[3.1.0]hexan-3-yl}-2-methylpyridin-3-yl)methyl]-N-[(4R)-1-methyl-1H,4H,5H,6H-cyclopenta[d]imidazol-4-yl]furan-3-carboxamide] |
| 2.8 nM | 612 nM | – | Cn1cnc2c1CC[C@H]2NC(=O)c1cnn(Cc2ccc(N3CC4CC4C3)nc2C(F)F)c1 (stereo partly drawn) [Example 48, 1-[(6-{3-Azabicyclo[3.1.0]hexan-3-yl}-2-(difluoromethyl)-pyridin-3-yl)methyl]-N-[(4R)-1-methyl-1H,4H,5H,6H-cyclopenta[d]imidazol-4-yl]-1H-pyrazole-4-carboxamide] |
